Among the data in PMC6484444 (Analytical biochemistry, 2018) are IC50 and Km values, retold here.

One data set has as its target ClpP1P2 (ClpP1) (Mycobacterium tuberculosis, UniProt P9WPC3+P9WPC5). It is filed as biochemical.
The test system of data set [1] is Nc1ncnc2c1ncn2[C@@H]1O[C@H](COP(=O)(O)OP(=O)(O)OP(=O)(O)O)[C@@H](O)[C@H]1O. Put plainly: purified protein.

Chain of ClpP1P2 (ClpP1) (P9WPC5 whole entry, looked up): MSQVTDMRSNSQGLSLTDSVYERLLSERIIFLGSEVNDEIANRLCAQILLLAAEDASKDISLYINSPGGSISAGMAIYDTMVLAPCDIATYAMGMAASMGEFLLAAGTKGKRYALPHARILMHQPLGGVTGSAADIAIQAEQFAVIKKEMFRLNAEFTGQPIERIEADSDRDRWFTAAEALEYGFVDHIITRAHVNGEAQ
Chain of ClpP1P2 (ClpP1) (P9WPC3 whole entry, looked up): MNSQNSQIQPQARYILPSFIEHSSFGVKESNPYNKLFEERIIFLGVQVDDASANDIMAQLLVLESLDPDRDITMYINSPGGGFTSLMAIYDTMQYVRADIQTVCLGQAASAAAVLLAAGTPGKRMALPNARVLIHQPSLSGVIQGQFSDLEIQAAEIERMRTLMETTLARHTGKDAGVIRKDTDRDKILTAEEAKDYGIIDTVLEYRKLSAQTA

The term IC50 denotes the midpoint of a concentration-inhibition curve. Low readings indicate higher potency, high ones lower potency. At ClpP1P2 (ClpP1), `O=c1oc(Cl)c(Cl)c2ccccc12` [DCC, 3,4-Dichloroisocoumarin] gave an IC50 of 80 µM. What is called Km is the concentration of substrate that gives half-maximal velocity. On to “ClpC1 (Mycobacterium tuberculosis H37Rv)”, for which, in data set [1], the Km was determined as 1400 ± 100 µM.
